In ChEMBL document CHEMBL2010660, “Synthesis, SAR and biological evaluation of 1,6-disubstituted-1H-pyrazolo[3,4-d]pyrimidines as dual inhibitors of Aurora kinases and CDK1” (Bioorg Med Chem Lett, 2012):
Activity calls are given as the source filed them. The rule behind the calls is not given here.

What was measured:
Aurora kinase A = biological target: T1, Aurora kinase A (Homo sapiens, UniProt O14965); assay: Inhibition of aurora A kinase
T1 sequence (O14965 whole entry): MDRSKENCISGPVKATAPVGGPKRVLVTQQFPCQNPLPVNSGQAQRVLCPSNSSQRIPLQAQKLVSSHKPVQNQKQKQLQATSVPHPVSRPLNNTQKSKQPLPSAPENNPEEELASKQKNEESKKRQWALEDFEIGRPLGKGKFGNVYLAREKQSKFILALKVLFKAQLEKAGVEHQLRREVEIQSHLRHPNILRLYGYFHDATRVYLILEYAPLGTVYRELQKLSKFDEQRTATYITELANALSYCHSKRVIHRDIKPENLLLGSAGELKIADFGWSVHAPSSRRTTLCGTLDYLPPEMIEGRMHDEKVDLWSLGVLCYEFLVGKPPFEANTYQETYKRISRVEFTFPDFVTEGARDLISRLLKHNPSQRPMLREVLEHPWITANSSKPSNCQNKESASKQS

Aurora kinase B [1] = biological target: T2, Aurora kinase B (Homo sapiens, UniProt Q96GD4); assay: Inhibition of aurora B kinase
T2 sequence (Q96GD4 whole entry): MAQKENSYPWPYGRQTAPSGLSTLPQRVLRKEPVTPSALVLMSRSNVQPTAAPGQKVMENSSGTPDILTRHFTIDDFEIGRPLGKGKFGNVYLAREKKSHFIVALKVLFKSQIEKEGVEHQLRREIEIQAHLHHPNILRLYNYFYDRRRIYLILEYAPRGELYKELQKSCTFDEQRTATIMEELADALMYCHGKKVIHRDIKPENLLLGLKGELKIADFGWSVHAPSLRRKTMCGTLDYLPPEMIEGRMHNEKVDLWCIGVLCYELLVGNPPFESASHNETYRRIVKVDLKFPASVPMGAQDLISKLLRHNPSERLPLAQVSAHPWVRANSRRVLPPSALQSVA

[2] = biological target: Cyclin-dependent kinase 1 (Homo sapiens, UniProt P06493); assay: Inhibition of CDK1
Cyclin-dependent kinase 1, sequence (P06493 whole entry): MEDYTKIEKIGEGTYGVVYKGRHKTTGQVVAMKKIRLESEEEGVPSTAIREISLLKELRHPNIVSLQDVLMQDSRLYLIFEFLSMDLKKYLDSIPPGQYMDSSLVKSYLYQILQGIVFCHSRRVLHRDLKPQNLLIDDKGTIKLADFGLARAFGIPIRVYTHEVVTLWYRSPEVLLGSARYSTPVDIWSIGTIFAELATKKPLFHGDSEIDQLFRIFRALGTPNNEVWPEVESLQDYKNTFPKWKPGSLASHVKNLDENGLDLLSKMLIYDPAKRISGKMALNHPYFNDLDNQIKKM

HCT-116 [3] = assay: Cytotoxicity against human HCT116 cells after 5 days by MTS assay; assay type: functional, cell-based; settings: HCT-116, 120 h
[4] = Metabolic stability in mouse liver microsome assessed as ratio of clearance to hepatic blood flow; assay type: ADME; settings: liver microsomes, read-out: QH
HCT-116 [5] = assay: Cell cycle arrest in human HCT116 cells assessed as minimum concentration required for G2/M versus G1 peak ratio over 2; assay type: functional
[6] = Toxicity in human BMNC assessed as granulocyte/monocyte colony forming units ratio after 14 days by microscopic analysis; settings: 336 h
[7] = biological target: T3, Aurora kinase A (Homo sapiens) (UniProt O14965); assay: Inhibition of aurora A kinase phosphorylation in human K562 cells at 0.003 to 1 uM by Western blot analysis; assay type: cell-based
T3 sequence (whole entry): T1 sequence (O14965 whole entry)

Aurora kinase B [8] = biological target: T2, Aurora kinase B; assay: Inhibition of aurora B kinase phosphorylation in human K562 cells at 0.003 to 1 uM by Western blot analysis; assay type: cell-based
[9] = Half life in mouse at 25 mg/kg, ip; assay type: ADME, organism-based; design: dose 25 mg/kg, route intraperitoneal; settings: in vivo
[10] = AUC in mouse at 25 mg/kg, ip; assay type: ADME, organism-based; design: dose 25 mg/kg, route intraperitoneal; settings: plasma
[11] = Clearance in mouse at 25 mg/kg, ip; assay type: ADME, organism-based; design: dose 25 mg/kg, route intraperitoneal; settings: in vivo
Mus musculus [12] = assay: Apparent volume of distribution in mouse at 25 mg/kg, ip; assay type: ADME, organism-based; design: dose 25 mg/kg, route intraperitoneal; settings: in vivo
Rattus norvegicus [13] = assay: Half life in rat at 4 mg/kg, iv; assay type: ADME, organism-based; design: dose 4 mg/kg, route intravenous; settings: in vivo
[14] = AUC in rat at 4 mg/kg, iv; assay type: ADME, organism-based; design: dose 4 mg/kg, route intravenous; settings: plasma
Rattus norvegicus [15] = assay: Apparent volume of distribution in rat at 4 mg/kg, iv; assay type: ADME, organism-based; design: dose 4 mg/kg, route intravenous; settings: in vivo
Mus musculus [16] = assay: Inhibition of CDK1 in mouse serum assessed as decrease in histone H1 phosphorylation at 25 mg/kg, ip measured after 2 hrs; assay type: functional; settings: route intraperitoneal
Mus musculus [17] = assay: Inhibition of CDK1 in mouse serum assessed as decrease in histone H3 phosphorylation at 25 mg/kg, ip measured after 2 hrs; assay type: functional; settings: route intraperitoneal
Mus musculus [18] = assay: Inhibition of aurora A kinase in mouse assessed as increase in histone H3 phosphorylation at 25 mg/kg, ip measured after 6 hrs; assay type: functional, organism-based; design: dose 25 mg/kg
Mus musculus [19] = assay: Inhibition of aurora A in mouse assessed as increase in histone H3 phosphorylation at 25 mg/kg, ip measured after 9 hrs; assay type: functional, organism-based; design: dose 25 mg/kg
HCT-116 [20] = assay: Antitumor activity against human HCT116 cells xenografted in nu/nu mouse assessed as tumor growth inhibition at 12.5 to 40 mg/kg, ip qd for 21 days; assay type: functional; settings: dose mg/kg 12.5-40; route intraperitoneal
Mus musculus [21] = assay: Toxicity in nu/nu mouse xenografted with human HCT116 cells assessed as weight loss at 12.5 to 40 mg/kg, ip qd for 21 days; assay type: organism-based, HCT-116; design: dose 12.5-40 mg/kg, route intraperitoneal; settings: in vivo, 504 h
Mus musculus [22] = assay: Toxicity in nu/nu mouse xenografted with human HCT116 cells assessed as reluctance to move at 12.5 to 40 mg/kg, ip qd for 21 days; assay type: organism-based, HCT-116; design: dose 12.5-40 mg/kg, route intraperitoneal; settings: in vivo, 504 h
Mus musculus [23] = assay: Toxicity in nu/nu mouse xenografted with human HCT116 cells assessed as hunched posture at 12.5 to 40 mg/kg, ip qd for 21 days; assay type: organism-based, HCT-116; design: dose 12.5-40 mg/kg, route intraperitoneal; settings: in vivo, 504 h
Mus musculus [24] = assay: Toxicity in nu/nu mouse xenografted with human HCT116 cells assessed as mortality at 12.5 to 40 mg/kg, ip qd for 21 days; assay type: organism-based, HCT-116; design: dose 12.5-40 mg/kg, route intraperitoneal; settings: in vivo, 504 h

Row | Structure (SMILES) | IC50 (Aurora kinase A) [nM] | IC50 (Aurora kinase B [1]) [nM] | IC50 [2] [nM] | IC50 (HCT-116 [3]) [nM] | hepatic extraction ratio [4] | Activity (HCT-116 [5]) [µM] | further results
1 | CC(C)n1ncc2cnc(Nc3cc(C(N)=O)n(C)c3)nc21 | 230 | 38 | 160 | 1000 | 0.27 | 1 | –
2 | Cn1cc(Nc2ncc3cnn([C@@H]4C[C@H]5C[C@H]5C4)c3n2)cc1C(N)=O | 17 | 4 | 24 | 79 | 0.69 | 0.1 | –
3 | Cn1cc(Nc2ncc3cnn([C@@H]4C[C@H]5C[C@H]5C4)c3n2)cc1C(=O)N1CCC[C@H]1C(N)=O | 6 | 4 | 10 | 47 | – | 0.03 | –
4 | Cn1cc(Nc2ncc3cnn([C@@H]4C[C@H]5C[C@H]5C4)c3n2)cc1C(=O)N1CCCC1 | 17 | 40 | 41 | 95 | – | 0.1 | –
5 | Cn1cc(Nc2ncc3cnn([C@@H]4C[C@H]5C[C@H]5C4)c3n2)cc1C(=O)N1CCC[C@H]1CN1CCOCC1 | 3 | 4 | 21 | 8 | – | 0.017 | –
6 | O=C(O)c1ccc(Nc2ncc3c(n2)-c2ccc(Cl)cc2C(c2c(F)cccc2F)=NC3)cc1 [MLN-8054] | – | – | – | 690 | – | – | –
7 | CNC[C@@H]1CCCN1C(=O)c1cc(Nc2ncc3cnn([C@@H]4C[C@H]5C[C@H]5C4)c3n2)cn1C | 80 | 50 | 1200 | 150 | – | 0.3 | –
8 | COC[C@H]1CCCN1C(=O)c1cc(Nc2ncc3cnn([C@@H]4C[C@H]5C[C@H]5C4)c3n2)cn1C | 16 | 6 | 150 | 60 | – | 0.065 | –
9 | CN(C)C(=O)[C@@H]1CCCN1C(=O)c1cc(Nc2ncc3cnn([C@@H]4C[C@H]5C[C@H]5C4)c3n2)cn1C | 19 | 4 | 1700 | 160 | – | 0.1 | –
10 | Cn1cc(Nc2ncc3cnn([C@@H]4C[C@H]5C[C@H]5C4)c3n2)cc1C(=O)N1CCC[C@@H]1CN1CCOCC1 | 1.5 | 4 | 390 | 24 | – | 0.03 | –
11 | Cn1cc(Nc2ncc3cnn(C4CCCCCC4)c3n2)cc1C(N)=O | 87 | 23 | 15 | 140 | 0.87 | 0.23 | –
12 | Cn1cc(Nc2ncc3cnn([C@@H]4C[C@H]5C[C@H]5C4)c3n2)cc1C(=O)N1CCC[C@@H]1CO | 100 | 36 | 150 | 170 | – | 0.1 | –
13 | Cn1cc(Nc2ncc3cnn(C4CCC5(CC4)CC5)c3n2)cc1C(N)=O | 40 | 5 | 19 | 120 | 0.89 | 0.3 | –
14 | O=C1N=C(NCc2cccs2)S/C1=C\c1ccc2ncccc2c1 | – | – | – | 3200 | – | – | –
15 | Cn1cc(Nc2ncc3cnn(C4C5CC6CC(C5)CC4C6)c3n2)cc1C(N)=O (stereo not given) | 25 | 18 | 38 | 270 | 0.89 | 0.3 | –
16 | Cn1cc(Nc2ncc3cnn([C@H]4CC[C@H]5CCC[C@H]54)c3n2)cc1C(N)=O | 21 | 12 | 16 | 230 | 0.76 | 0.3 | –
17 | COC[C@@H]1CCCN1C(=O)c1cc(Nc2ncc3cnn([C@@H]4C[C@H]5C[C@H]5C4)c3n2)cn1C | 4 | 5 | 22 | 10 | – | 0.03 | Ratio [6]: 32; inhibition [7]: Active; inhibition (Aurora kinase B [8]): Active; half-life [9]: 1 h; AUC [10]: 6420 ng·h/mL; CL/F [11]: 65 mL/min/kg; Vz (Mus musculus [12]): 3 L/kg; t1/2 (Rattus norvegicus [13]): 5 h; AUC [14]: 1230 ng·h/mL; Vz (Rattus norvegicus [15]): 5 L/kg; inhibition in vivo at 25 mg/kg (Mus musculus [16]): 60%; inhibition in vivo at 25 mg/kg (Mus musculus [17]): 90%; inhibition (Mus musculus [18]): Active; inhibition (Mus musculus [19]): Active; TGI (HCT-116 [20]): 30%; Activity (Mus musculus [21]): 2%; Activity (Mus musculus [22]): Toxic; Activity (Mus musculus [23]): Toxic; Activity (Mus musculus [24]): Toxic
18 | Cn1cc(Nc2ncc3cnn(C4CCC5(CC5)C4)c3n2)cc1C(N)=O (stereo not given) | 150 | 19 | 50 | 290 | 0.89 | 0.65 | –
19 | Cn1cc(Nc2ncc3cnn(C4CCC(C)(C)CC4)c3n2)cc1C(N)=O | 30 | 5 | 24 | 100 | 0.92 | 0.1 | –
20 | Cn1cc(Nc2ncc3cnn([C@@H]4CC[C@H]5CCC[C@H]54)c3n2)cc1C(N)=O | 13 | 22 | 13 | 66 | 0.85 | 0.1 | –
21 | Cn1cc(Nc2ncc3cnn([C@@H]4C[C@H]5C[C@H]5C4)c3n2)cc1C(=O)N1CCC[C@H]1CN1CCCC1 | 10 | 5 | 47 | 11 | – | 0.03 | –
22 | C[C@@H]1CCCN1C(=O)c1cc(Nc2ncc3cnn([C@@H]4C[C@H]5C[C@H]5C4)c3n2)cn1C | 2 | 4 | 40 | 130 | – | 0.03 | –
23 | Cn1cc(Nc2ncc3cnn([C@@H]4C[C@H]5C[C@H]5C4)c3n2)cc1C(=O)N1CCC[C@H]1CO | 4 | 3 | 10 | 18 | – | 0.01 | –
